# Data as given in patent US20200407712A1, “ARRAY-BASED CYCLIC PEPTIDE LIBRARIES” (HealthTell Inc., priority 2018, published 2020).
# Key:
# human diaphorase (NQO1) = target: T1, human diaphorase (NQO1) (Homo sapiens, UniProt P15559); test: Alexa Fluor 555-diaphorase binding to linear and lactam constrained peptide microarrays; settings: 10.0 nM protein applied to the array; for Diaphorase Lactam, log 10 transformed median intensity: lactam constrained library peptide; for Diaphorase Linear, log 10 transformed median intensity: linear library peptide
# T1 construct: purchased SigmaAldrich
# T1 sequence (P15559 whole entry): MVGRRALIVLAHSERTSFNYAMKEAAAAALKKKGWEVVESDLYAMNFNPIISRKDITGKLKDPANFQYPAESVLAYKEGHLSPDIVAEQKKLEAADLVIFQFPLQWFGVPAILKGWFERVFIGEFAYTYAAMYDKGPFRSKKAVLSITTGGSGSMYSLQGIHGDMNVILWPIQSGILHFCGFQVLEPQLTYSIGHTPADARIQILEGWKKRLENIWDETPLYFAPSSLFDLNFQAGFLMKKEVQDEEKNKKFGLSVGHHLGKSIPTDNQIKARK
# From the text: (§1) Diaphorase is NAD(P)H dehydrogenase (UniProtKB: P15559) encoded by the NQO1 gene. Diaphorase has utility as a model enzyme; for which peptide based synthetic affinity agents to diaphorase are required. A 3.3 million feature peptide array was used to identify potential binding partner peptides for diaphorase. Ferredoxin NADP+ Reductase (FNR) and Ferredoxin are included as counter screens for a specific application, while immunoglobulin depleted human serum (Non-Immunoglobulin Serum Components or NISC) was used as a complex mixture to control for generally sticky peptides.
# Two wafers from the same synthesis batch were obtained where one wafer was prepared with the lactam chemistry and constrained into a cyclized form. The degree of cyclization was confirmed using the biotinylation assay described in Examples 9, 17, and 19.
# (§2) Peptide arrays were prepared for protein binding by pretreating the arrays in PBST for 30 min at […]. Direct labeled diaphorase (Alexa Fluor™ 555), direct labeled FNR (Alexa Fluor™ 555) and biotinylated ferredoxin were applied to the arrays at 1.0 and 10.0 nM along with direct labeled NISC at 0.001 mg/mL for 1 hr at 37° C. Arrays were washed 3× with PBST and Streptavidin-Alexa Fluor™ 555 was applied to the biotinylated ferredoxin and streptavidin alone arrays. All other arrays received PBST and were incubated for 1 hr at 37° C. Arrays were washed with PBST and p53Ab1-Alexa Fluor™ 647 applied to all arrays to illuminate the edge fiducials for 10 min at 37° C. Following the final incubation arrays were washed in PBST and water, dried and imaged on the ImageXpress ([…]). Triplicate arrays were used for the subsequent analysis except for when rejection of an array was necessary due to the presence of artifacts. Data were analyzed using a custom R script.
# Intensities plotted are the log 10 transformed median intensity from replicate arrays. Coloring of the points represents the density of features at that intensity using a gray-scale map. Light grey represents areas of low peptide numbers while black represents the intensity having the highest number of peptides. The diagonal line is equivalence line. […] CLUSTAL sequence alignment (FIG. 27B) of the sequences indicated similarities in amino acid composition. Highlighted amino acids are conserved in over 60% of the peptides for that position or are a chemically similar amino acid (ie: F and Y).
# The sequences contain similar amino acid usage. Four peptides having the highest degree of cyclization in the quality control assay were identified and binding intensities compared to other library peptides having one or two amino acid substitutions as shown in FIG. 28. Substitutional analysis provides confidence in the array data by indicating which residues are important for binding. Dark grey boxes highlight indicate a residue conserved in more than 60% of the peptides. Light grey boxes highlight indicate chemically similar amino acids to the conserved residue. RFI is the intensity is the median replicate log 10 intensity for the 10.0 nM Diaphorase.
# [1] = test system: Ferredoxin NADP+ Reductase (FNR); test: FNR counter screen on linear and lactam constrained peptide microarrays; type: binding; settings: 10.0 nM protein applied to the array; for FNR Lactam, log 10 transformed median intensity: lactam constrained library peptide; for FNR Linear, log 10 transformed median intensity: linear library peptide
# From the text: as §1, §2
# Ferredoxin = test: Biotinylated ferredoxin counter screen on linear and lactam constrained peptide microarrays; type: binding; settings: 10.0 nM biotinylated protein, detected with Streptavidin-Alexa Fluor 555; for Ferredoxin Lactam, log 10 transformed median intensity: lactam constrained library peptide; for Ferredoxin Linear, log 10 transformed median intensity: linear library peptide
# From the text: as §1, §2
# [2] = test system: Non-Immunoglobulin Serum Components (NISC); test: NISC counter screen on linear and lactam constrained peptide microarrays; type: binding, human; settings: 0.001 mg/mL NISC applied to the array; for NISC Lactam, log 10 transformed median intensity: lactam constrained library peptide; for NISC Linear, log 10 transformed median intensity: linear library peptide
# From the text: as §1, §2
# Peptides were also selected based on the difference in log 10 transformed intensities between diaphorase and NISC as the counter screen agent (LFGdiaphorase minus LFGNISC). Intensities for 10.0 nM diaphorase and 0.001 mg/mL NISC are shown in FIG. 29A where intensities plotted are the log 10 transformed median intensity from replicate arrays. Coloring of the points represents the density of features at that intensity using a grey colorscale. Light grey represents areas of low peptide numbers while black represents the intensity having the highest number of peptides. The diagonal line is equivalence line. Selectivity vs NISC was not dependent on cyclization as diaphorase also bound the linear forms for some peptides (Table 4). Three peptides having the highest degree of cyclization in the quality control assay were identified and binding intensities compared to other library peptides having one or two amino acid substitutions (FIG. 30) Each CLUSTAL alignment contains the library peptides having a maximum of two substitutions to the parent peptide. Dark grey highlights indicate a residue conserved in more than 60% of the peptides. Light grey highlights indicate chemically similar amino acids to the conserved residue. The amino acid usage is indicated in the sequence logo above the alignment. Substitutional analysis provides confidence in the array data by indicating which residues are important for binding.
# Streptavidin = Streptavidin (Streptomyces avidinii, UniProt P22629); test: Streptavidin-Alexa Fluor 555 alone on linear and lactam constrained peptide microarrays; type: binding; settings: for Streptavidin Lactam, log 10 transformed median intensity: lactam constrained library peptide; for Streptavidin Linear, log 10 transformed median intensity: linear library peptide
# Streptavidin, sequence (P22629 25-183, species assumed): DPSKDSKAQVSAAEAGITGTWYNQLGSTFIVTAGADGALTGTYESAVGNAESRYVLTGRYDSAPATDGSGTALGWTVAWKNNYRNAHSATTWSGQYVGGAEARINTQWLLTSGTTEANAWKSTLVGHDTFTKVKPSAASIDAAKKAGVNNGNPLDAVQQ
# Method: as §2
Substance,"Diaphorase Lactam, log 10 transformed median intensity (human diaphorase (NQO1))","Diaphorase Linear, log 10 transformed median intensity (human diaphorase (NQO1))","FNR Lactam, log 10 transformed median intensity [1]","FNR Linear, log 10 transformed median intensity [1]","Ferredoxin Lactam, log 10 transformed median intensity (Ferredoxin)","Ferredoxin Linear, log 10 transformed median intensity (Ferredoxin)","NISC Lactam, log 10 transformed median intensity [2]","NISC Linear, log 10 transformed median intensity [2]","Streptavidin Lactam, log 10 transformed median intensity (Streptavidin)","Streptavidin Linear, log 10 transformed median intensity (Streptavidin)"
"PPYTYANN [library array peptide, tested lactam constrained and linear]",4.35,4.00,2.54,2.53,2.56,2.55,2.66,2.63,2.53,2.52
"PTSSYLN [library array peptide, tested lactam constrained and linear]",4.32,3.75,2.53,2.53,2.56,2.55,2.63,2.61,2.52,2.53
"PYSNVFQG [library array peptide, tested lactam constrained and linear]",4.43,3.88,2.56,2.56,2.59,2.57,2.72,2.66,2.54,2.54
"QPQSQQSQ [library array peptide, tested lactam constrained and linear]",4.28,3.42,2.55,2.55,2.56,2.56,2.59,2.59,2.53,2.54
"TFGFNGFP [library array peptide, tested lactam constrained and linear]",4.49,2.84,2.59,2.55,2.70,2.55,3.49,2.62,2.53,2.52
"TFSSFAPV [library array peptide, tested lactam constrained and linear]",4.52,2.86,2.56,2.55,2.70,2.55,3.36,2.65,2.53,2.53
"TISYPLTP [library array peptide, tested lactam constrained and linear]",4.55,2.86,2.56,2.53,2.84,2.55,3.49,2.59,2.54,2.53
"TSFFPGYN [library array peptide, tested lactam constrained and linear]",4.51,2.86,2.62,2.54,2.71,2.54,3.47,2.60,2.52,2.53
"TTFFQPSY [library array peptide, tested lactam constrained and linear]",4.46,2.77,2.55,2.54,2.78,2.54,3.35,2.59,2.52,2.54
"TTFSFSTP [library array peptide, tested lactam constrained and linear]",4.47,2.78,2.62,2.57,2.69,2.58,3.33,2.62,2.55,2.54
